Measured values taken from ChEMBL document CHEMBL6078674, “Genome Mining of the Marine-Derived Fungus Trichoderma erinaceum F1-1 Unearths Bergamotene-Type Sesquiterpenoids” (J Nat Prod, 2024).

Tests used:
Staphylococcus aureus = assay: Antibacterial activity against methicillin-resistant Staphylococcus aureus; type: functional, organism-based
RAW264.7 = assay: Antiinflammatory activity in mouse RAW264.7 cells; type: functional, cell-based
RKO = assay: Cytotoxicity against human RKO cells; type: functional, cell-based
A549 = assay: Cytotoxicity against human A549 cells; type: functional, cell-based

Measured: IC50

CC(C)=CCC[C@]1(C)[C@@H]2C[C@H]1C(C)=C[C@H]2O[C@H]1O[C@H](CO)[C@@H](O)[C@H](O)[C@H]1O
> 50 µM: all assays above

CC(=O)[C@@H]1C[C@H](CC(=O)O)[C@@]1(C)CCC=C(C)C
> 50 µM: all assays above

CC(C)=CCC[C@]1(C)[C@@H]2C[C@H]1[C@@](C)(O)C(=O)[C@H]2O
> 50 µM: all assays above

CC(C)=CCC[C@]1(C)[C@H]2CC(=O)[C@](C)(O[C@H]3O[C@H](CO)[C@@H](O)[C@H](O)[C@H]3O)[C@@H]1C2
> 50 µM: all assays above

C/C(=C\CC[C@]1(C)[C@H]2CC(=O)[C@](C)(O)[C@@H]1C2)CO
> 50 µM: all assays above

CC(C)=CCC[C@]1(C)[C@@H]2C[C@H]1[C@@](C)(O)C(=O)C2=O
> 50 µM: all assays above

C/C(=C\CC[C@]1(C)[C@H]2CC(=O)[C@](C)(O)[C@@H]1C2)C(=O)O
> 50 µM: all assays above

C/C(=C\CC[C@]1(C)[C@H]2CC(=O)[C@@H](C)[C@@H]1C2)CO
> 50 µM: all assays above
